Values joined by “and” are separate entries in the source; they are usually repeats but may differ in a detail not shown here. Identical values can stand only once. Like-named read-outs stand apart in the source and are kept apart here.
Experiments:
[1] = system: human bladder cancer cell line 5637; assay: MTT assay, inhibition of cell growth (single drugs and combinations with NIT; CI by Chou's method); assay type: cell-based; settings: for IC25 / IC75: 5637; for Average Fa: 96 hours
Procedure: (§1) The combinational studies of NIT and chemotherapies were conducted by mixing NIT with individual chemotherapies at five to seven concentration levels, with the medium concentration levels close to their IC50 values. The combinational indices (CIs) were calculated and plotted according to Ting-Chao Chou's method (19) to estimate the combinational effects, including synergism, addition and antagonism.
(§2) Compounds: NIT, carboplatin, paclitaxel, epirubicin and pirarubicin were purchased from suppliers, and were dissolved in the DMSO to stock solution and store in −20° C. Before use, the stock solutions were diluted to different concentrations of working solutions. The DMSO concentration in working solutions was less than 1%. All cancer cell lines were purchased from vendors.
(§3) An MTT assay was used as the test method. An appropriate amount of cells (2×10^3/100 μL) was seeded into 96-well plate and incubated at 37° C. in a CO2 incubator overnight for cell adhesion and adaptation. Cancer cells were also seeded in a separate 96-well plate (plate T0), 12 wells/cell line, to measure the OD value at time zero (T0). After overnight adaptation, 20 μL MTT reagent were added per well (final concentration 0.5 mg/mL) to plate T0 and incubated at 37° C. for 4 hours. The supernatant medium was pipetted out, and about 150 μL DMSO were added per well. The plate was read on a plate reader using 550 nm as the test wavelength and 630 nm as the reference wavelength to obtain the OD value at time zero (T0). After overnight adaptation, the test compounds and vehicle were added into the plate to treat the cells. The test compounds were tested at 6 concentrations in triplicate wells. The plate was incubated at 37° C. in a CO2 incubator for 48 h. A longer incubation time can be used. 20 μL MTT reagent were added per well and incubated at 37° C. for 4 h. the supernatant medium was pipetted out, and about 150 μL DMSO were added per well. The plate was read on a plate reader (TECAN, Infinite M200) using about […] as the test wavelength and about […] as the reference wavelength. Cell viability (%) was calculated in two ways: % Viability=[(T−B)/(C−B)]×100% % Viability=[(T−C0)/(C−C0)]×100%
(§4) T: Mean Absorbance of Treatment at various hours;
(§5) C: Mean Absorbance of negative Control at various hours;
(§6) B: Mean Absorbance of blank well (only culture medium) at various hours;
(§7) C0: Mean Absorbance of negative Control at 0 h.
(§8) The results are expressed as mean±SD. The IC50 was calculated by XLfit software. The test for each compound was independently repeated once.

[2] = system: human liver cancer cell line HepG2; assay: as above; assay type: cell-based
Procedure: as §1, §2, §3, §4, §5, §6, §7, §8

[3] = system: MBT-2-Luc bladder cancer; assay: Oral NIT with intravesical MMC in orthotopic mouse MBT-2-Luc bladder cancer model; settings: NIT 15 mg/kg Bid oral, MMC 1 mg/ml Q7d intravesical, single drug or actual observed value of combination; for Survival Proportion: end of the experiment (45 days)
Procedure: The tumor volume was analyzed by the Xenogen IVIS200 system following the indicated treatment. […] The tumor volume of each mouse was determined by region-of-interest analysis of total photons per second. Six mice were analyzed in each group.
To establish the orthotopic bladder cancer tumors, the mice were anesthetized by the intraperitoneal (i.p.) administration of ketamine/xylazine solution at a dose of 0.1 ml/10 g body weight (K113; Sigma-Aldrich Japan G.K., Tokyo, Japan). A 24-gauge Teflon intravenous catheter was subsequently inserted through the urethra into the bladder or prostate using an inert lubricant. In order to prepare the bladder for tumor implantation, a brief acid exposure, followed by alkaline neutralization, promoted a chemical lesion on the bladder wall, performed by the intravesical instillation of 8 μl 1 MOI silver nitrate. This led to the formation of an adequate and controlled diffuse bladder wall lesion. After 15 sec, the content was washed out by transurethral infusion of PBS. The first catheter was removed and a new 24-gauge catheter was inserted in the urethra for intravesical instillation of MBT-2-Luc cells (5×10^4 cells mixed with 0.1 ml PBS) and retained for 1.5 h by stitches. Every 10 days, tumor imaging was performed following i.p. administration of luciferin using bioluminescence technology (Xenogen IVIS200 system; Xenogen Corporation, Hopkinton, Mass., USA).
For the NIT and MMC combination, the mice carrying orthotopic bladder cancer tumors were randomly divided into four groups: control (PBS), NIT, MMC, and the combination of NIT and MMC.
(§9) The mice received i.p. injections of luciferin, and the luciferase expression in the tumors was measured by the Xenogen IVIS200 System.
Additivity was determined using the fractional product concept or Bliss Independence model: Exy=Ex+Ey−(ExEy), where EXY is the additive effect of the 2 compounds x and y as calculated by the product of the individual effect of the 2 compounds, Ex and Ey. Synergy was established when the actual observed tumor inhibition value was greater than the expected tumor inhibition value determined by the Bliss Independence model (20).

[4] = system: MBT-2-Luc bladder cancer; assay: Oral NIT with intraperitoneal anti-PD-1 antibody in orthotopic mouse MBT-2-Luc bladder cancer model
Procedure: The tumor volume of each mouse was determined by region-of-interest analysis of total photons per second. Five mice were analyzed in each group.
To establish the orthotopic bladder cancer tumors, the mice were anesthetized by the intraperitoneal (i.p.) administration of ketamine/xylazine solution at a dose of 0.1 ml/10 g body weight (K113; Sigma-Aldrich Japan G.K., Tokyo, Japan). A 24-gauge Teflon intravenous catheter was subsequently inserted through the urethra into the bladder or prostate using an inert lubricant. In order to prepare the bladder for tumor implantation, a brief acid exposure, followed by alkaline neutralization, promoted a chemical lesion on the bladder wall, performed by the intravesical instillation of 8 μl 1 MOI silver nitrate. This led to the formation of an adequate and controlled diffuse bladder wall lesion. After 15 sec, the content was washed out by transurethral infusion of PBS. […]
as §9
Additivity was determined using the fractional product concept or Bliss Independence model: Exy=Ex+Ey−(ExEy), where EXY is the additive effect of the 2 compounds x and y as calculated by the product of the individual effect of the 2 compounds, Ex and Ey.

[5] = system: RM-9-Luc prostate cancer; assay: Oral NIT with intraperitoneal anti-PD-1 antibody in orthotopic mouse RM-9-Luc prostate cancer model; assay type: in vivo
Procedure: Eight mice were analyzed for each group.
A low abdominal transverse incision was made, and the bilateral dorsal lobes of prostate were exposed. Following the trypsinization of RM-9-Luc cells, 5.0×10^3 cells in 10 μl of Hanks' balanced salt solution were injected using a new 24-gauge catheter directly into the right dorsal lobe of the prostate. A clearly recognizable bleb within the injected prostatic lobe was considered as a sign of a technically satisfactory injection. The abdominal wound was closed with stainless steel clips (Autoclip; Becton Dickinson Co., Sparks, Md.).

[6] = system: MBT-2-Luc bladder cancer; parameters: concentration or dose not given beside the values; settings: mouse, in vivo
[7] = Homo sapiens, inhibition of cell growth, 5637 (Table 9), read-out: IC50
[8] = Homo sapiens, cell line 5637, read-out: IC50 for inhibition of cell growth

N.N.O=C([O-])C1(C(=O)[O-])CCC1.[Pt+2] [Carboplatin, carboplatin]
Inhibition Rates ([1]; Carbo 0.5 μg/ml, 120 hours): 31.5%
Inhibition Rates ([1]; Carbo 1 μg/ml, 120 hours): 53.7%
Inhibition Rates ([1]; Carbo 2 μg/ml, 120 hours): 69.9%
Inhibition Rates ([1]; Carbo 4 μg/ml, 120 hours): 88.1%
Inhibition Rates ([1]; Carbo 8 μg/ml, 120 hours): 91.5%
IC50 for inhibition of cell growth ([1]; cell line 5637): 0.917 µg/mL
Inhibition Rates ([2]; Carbo 4 μg/ml, 120 hours): 38.9%
Inhibition Rates ([2]; Carbo 8 μg/ml, 120 hours): 70.7%
Inhibition Rates ([2]; Carbo 16 μg/ml, 120 hours): 85.2%
Inhibition Rates ([2]; Carbo 32 μg/ml, 120 hours): 89.1%
Inhibition Rates ([2]; Carbo 64 μg/ml, 120 hours): 93.0%
Inhibition Rates ([2]; Carbo 128 μg/ml, 120 hours): 93.9%
IC50 for inhibition of cell growth ([2]; cell line HepG2): 3.687 µg/mL

COc1cccc2c1C(=O)c1c(O)c3c(c(O)c1C2=O)C[C@@](O)(C(=O)CO)C[C@@H]3O[C@H]1C[C@H](N)[C@@H](O)[C@H](C)O1 [Epirubicin, epirubicin]
IC50 [1, 7]: 0.0452 µg/mL
IC25 ([1]; inhibition of cell growth): 0.03497 µg/mL
IC75 ([1]; inhibition of cell growth): 0.06393 µg/mL

CO[C@@]12[C@H](COC(N)=O)C3=C(C(=O)C(C)=C(N)C3=O)N1C[C@@H]1N[C@@H]12 [Mitomycin C, mitomycin C]
Average Fa ([1]; NIT 0, Mitomycin C 3.13 (units not given)): 1.6%
Average Fa ([1]; NIT 0, Mitomycin C 12.5 (units not given)): 27.7%
Average Fa ([1]; NIT 0, Mitomycin C 50 (units not given)): 77.9%
Average Fa ([1]; NIT 0, Mitomycin C 200 (units not given)): 79.4%
IC25 ([1]; inhibition of cell growth): 0.04836 µg/mL
IC75 ([1]; inhibition of cell growth): 0.53662 µg/mL
IC50 ([1]; inhibition of cell growth, 5637 (Table 9)): 0.15253 µg/mL
Tumor Growth Inhibition [3]: 0.56
Survival Proportion [3]: 0.57

O=[N+]([O-])c1ccc(O)c2ncccc12 [NIT, Nitroxoline]
Tumor Growth Inhibition ([4]; NIT 15 mg/kg bid p.o., anti-PD-1 10 mg/kg q5d intraperitoneal, single drug or actual observed value of combination): 0.31
tumor inhibition rate ([4]; NIT 15 mg/kg oral, anti-PD-1 10 mg/kg intraperitoneal, FIG. 11B): 31%
Tumor Weight Proportion ([5]; NIT 15 mg/kg bid p.o., anti-PD-1 10 mg/kg q4d intraperitoneal, single drug or actual observed value of combination): 0.37
tumor growth inhibition rate ([5]; tumor volume, FIG. 12B, NIT 15 mg/kg oral, anti-PD-1 10 mg/kg intraperitoneal): 52%
Tumor Growth Inhibition ([5]; tumor volume, NIT 15 mg/kg bid p.o., anti-PD-1 10 mg/kg q4d intraperitoneal, single drug or actual observed value of combination): 0.52
tumor inhibition by tumor weight ([5]; tumor weight, FIG. 12D, NIT 15 mg/kg oral, anti-PD-1 10 mg/kg intraperitoneal): 37%
Survival Proportion [6]: 0.4
Tumor Growth Inhibition [6]: 0.52 and 0.35
inhibition at 0.25 µg/mL ([1]; Homo sapiens, NIT 0.25 μg/ml, 120 hours, read-out: Inhibition Rates): 18%
inhibition at 0.5 µg/mL ([1]; Homo sapiens, NIT 0.5 μg/ml, 120 hours, read-out: Inhibition Rates): 52%
inhibition at 1 µg/mL ([1]; Homo sapiens, NIT 1 μg/ml, 120 hours, read-out: Inhibition Rates): 79.9%
inhibition at 2 µg/mL ([1]; Homo sapiens, NIT 2 μg/ml, 120 hours, read-out: Inhibition Rates): 92.3%
inhibition at 4 µg/mL ([1]; Homo sapiens, NIT 4 μg/ml, 120 hours, read-out: Inhibition Rates): 95.5%
IC50 [1, 8]: 0.517 µg/mL
Average Fa ([1]; NIT 625, Mitomycin C 0 (units not given)): −7.2%
Average Fa ([1]; NIT 1250, Mitomycin C 0 (units not given)): −3.8%
Average Fa ([1]; NIT 2500, Mitomycin C 0 (units not given)): 23.3%
Average Fa ([1]; NIT 5000, Mitomycin C 0 (units not given)): 74.3%
Average Fa ([1]; NIT 10000, Mitomycin C 0 (units not given)): 94.0%
inhibition at 0.5 µg/mL ([2]; Homo sapiens, HepG2, NIT 0.5 μg/ml, 120 hours, read-out: Inhibition Rates): 3.2%
inhibition at 1 µg/mL ([2]; Homo sapiens, HepG2, NIT 1 μg/ml, 120 hours, read-out: Inhibition Rates): 21.7%
inhibition at 2 µg/mL ([2]; Homo sapiens, HepG2, NIT 2 μg/ml, 120 hours, read-out: Inhibition Rates): 80.3%
inhibition at 4 µg/mL ([2]; Homo sapiens, HepG2, NIT 4 μg/ml, 120 hours, read-out: Inhibition Rates): 90.5%
inhibition at 8 µg/mL ([2]; Homo sapiens, HepG2, NIT 8 μg/ml, 120 hours, read-out: Inhibition Rates): 93.5%
inhibition at 16 µg/mL ([2]; Homo sapiens, HepG2, NIT 16 μg/ml, 120 hours, read-out: Inhibition Rates): 95.3%
IC50 ([2]; Homo sapiens, cell line HepG2): 1.86 µg/mL
Tumor Growth Inhibition [3]: 0.33
Survival Proportion [3]: 0.33

CC(=O)O[C@H]1C(=O)[C@@]2(C)[C@H]([C@H](OC(=O)c3ccccc3)[C@]3(O)C[C@H](OC(=O)[C@H](O)[C@@H](NC(=O)c4ccccc4)c4ccccc4)C(C)=C1C3(C)C)[C@]1(OC(C)=O)CO[C@@H]1C[C@@H]2O [Paclitaxel, paclitaxel]
IC50 [1, 8]: 0.000289 µg/mL
Inhibition Rates ([1]; Taxol 0.125 ng/ml, 112 hours): 11.9%
Inhibition Rates ([1]; Taxol 0.25 ng/ml, 112 hours): 47.6%
Inhibition Rates ([1]; Taxol 0.5 ng/ml, 112 hours): 84.3%
Inhibition Rates ([1]; Taxol 1 ng/ml, 112 hours): 90.3%
Inhibition Rates ([1]; Taxol 2 ng/ml, 112 hours): 96.8%
IC50 ([2]; Homo sapiens, cell line HepG2): 0.0025 µg/mL
Inhibition Rates ([2]; Taxol 0.5 ng/ml, 112 hours): 5.8%
Inhibition Rates ([2]; Taxol 1 ng/ml, 112 hours): 14.0%
Inhibition Rates ([2]; Taxol 2 ng/ml, 112 hours): 47.5%
Inhibition Rates ([2]; Taxol 4 ng/ml, 112 hours): 75.8%
Inhibition Rates ([2]; Taxol 8 ng/ml, 112 hours): 90.4%
Inhibition Rates ([2]; Taxol 16 ng/ml, 112 hours): 92.7%

COc1cccc2c1C(=O)c1c(O)c3c(c(O)c1C2=O)C[C@@](O)(C(=O)CO)C[C@@H]3O[C@H]1C[C@H](N)[C@H](O[C@@H]2CCCCO2)[C@H](C)O1 [Pirarubicin, pirarubicin]
IC50 [1, 7]: 0.143 µg/mL
IC25 ([1]; inhibition of cell growth): 0.09658 µg/mL
IC75 ([1]; inhibition of cell growth): 0.21958 µg/mL
